Each molecule was assayed on rat small-intestinal brush border membrane vesicles (assay: Inhibitory effect on 33PO4 uptake into rat small-intestinal brush border membrane vesicles (rapid filtration method)). Settings: 1 µM test compound; 33PO4 uptake into rat small-intestinal BBMVs, 60 seconds.
Assay type: biochemical, Wistar female rat
Method: The ^33PO4 transport activity of the small-intestinal BBMVs was determined by the rapid filtration method. […] Then, ice-cold buffer C (110 mM NaCl, 1 mM KH2PO4, and 10 mM HEPES (pH 7.5)) was added to each reaction mixture, which was immediately suction-filtered through a Millipore filter. The filter was washed with buffer C, and each sample was then dissolved in a liquid scintillator. The amount of ^33PO4 uptake into BBMVs was measured using a liquid scintillation counter. […]

| Compound | Rate of uptake inhibition (%) (1 µM) |
| --- | --- |
| CN1N(Cc2ccc(OCCN3CCOCC3)c(F)c2F)C(=O)C(C(=O)Nc2ccc(C(F)(F)F)cc2-c2ncnc(C(F)(F)F)c2Cl)=C(O)C12CCC2 [Example 284] | 46 |
| CN(CCOCCOc1ccc(CN2C(=O)C(C(=O)Nc3ccc(C(F)(F)F)cc3-c3cc(C(F)(F)F)ncn3)=C(O)C3(CCCC3)N2C)c(F)c1F)C[C@H](O)[C@@H](O)[C@H](O)[C@H](O)CO [Example 420, 7-[[2,3-Difluoro-4-[2-[2-[methyl-[(2S,3R,4R,5R)-2,3,4,5,6-pentahydroxyhexyl]amino]ethoxy]ethoxy]phenyl]methyl]-10-hydroxy-6-methyl-8-oxo-N-[4-(trifluoromethyl)-2-[6-(trifluoromethyl)pyrimidin-4-yl]phenyl]-6,7-diazaspiro[4.5]dec-9-ene-9-carboxamide] | 19 |
| COc1cccc(CN2C(=O)C(C(=O)Nc3ccc(C(F)(F)F)cc3-c3ccc(C(F)(F)F)nc3)=C(O)[C@@]3(C)CCCN23)c1OC [Example 175] | 85 |
| Cc1cccc(CN2C(=O)C(C(=O)Nc3ccc(C(F)(F)F)cc3-c3cc(C(F)(F)F)ncn3)=C(O)[C@@]3(C)CCCN23)c1 [Example 186] | 88 |
| CN1N(Cc2ccc(OCCN[C@@H](CC(=O)O)C(=O)O)c(F)c2F)C(=O)C(C(=O)Nc2ccc(C(F)(F)F)cc2-c2cc(C(F)(F)F)ncn2)=C(O)C12CCCC2 [Example 381, (2S)-2-[2-[2,3-Difluoro-4-[[10-hydroxy-6-methyl-8-oxo-9-[[4-(trifluoromethyl)-2-[6-(-trifluoromethyl)pyrimidin-4-yl]phenyl]carbamoyl]-6,7-diazaspiro[4.5]dec-9-en-7-yl]methyl]phenoxy]ethylamino]butanedioate] | 28 |
| C[C@]12CCCN1N(Cc1cccc(F)c1F)C(=O)C(C(=O)Nc1ccc(Br)cc1)=C2O [Example 77] | 80 |
| COC[C@@H]1CCCN1CCOc1ccc(CN2C(=O)C(C(=O)Nc3ccc(C(F)(F)F)cc3-c3cc(C(F)(F)F)ncn3)=C(O)C3(CCCC3)N2C)c(F)c1F [Example 375] | 31 |
| C[C@]12CCCN1N(Cc1cccc(F)c1F)C(=O)C(C(=O)Nc1ccc(C(F)(F)F)cc1-c1cnc(Cl)cn1)=C2O [Example 74] | 82 |
| CC1(C)CC[C@]2(C)C(O)=C(C(=O)Nc3cc(C(F)(F)F)ccc3-c3ccc(C(F)(F)F)nc3)C(=O)N(Cc3cccc(F)c3F)N12 [Example 63] | 72 |
| CCC1(CC)C(O)=C(C(=O)Nc2ccc(Cl)cc2-c2cc(C(F)(F)F)ncn2)C(=O)N(Cc2ccc(OCCN3CCOCC3)c(F)c2F)N1C [Example 292] | 44 |
| CN1[C@@H](C(C)(C)C)C(O)=C(C(=O)Nc2cc(F)c(Br)c(F)c2)C(=O)N1Cc1cccc(F)c1F [Example 240] | 72 |
| C[C@]12CCCN1N(Cc1cccc(F)c1F)C(=O)C(C(=O)Nc1ccc(C(F)(F)F)cc1-c1ncnc(C#N)c1Cl)=C2O [Example 23] | 84 |
| COCCN1CC[C@@H](Oc2ccc(CN3C(=O)C(C(=O)Nc4ccc(C(F)(F)F)cc4-c4cc(C(F)(F)F)ncn4)=C(O)C4(CCC4)N3C)c(F)c2F)C1 [Example 405, 6-[[2,3-Difluoro-4-[(3R)-1-(2-methoxyethyl)pyrrolidin-3-yl]oxyphenyl]methyl]-9-hydroxy-5-methyl-7-oxo-N-[4-(trifluoromethyl)-2-[6-(trifluoromethyl)pyrimidin-4-yl)phenyl]-5,6-diazaspiro[3.5]non-8-ene-8-carboxamide] | 30 |
| CCC1(CC)C(O)=C(C(=O)Nc2ccc(Cl)cc2-c2ccc(C(F)(F)F)nc2)C(=O)N(Cc2ccc(OCCN3CCOCC3)c(F)c2F)N1C [Example 294] | 40 |
| C[C@]12CCCN1N(Cc1cccc(F)c1F)C(=O)C(C(=O)Nc1ccc(C(F)(F)F)cc1-c1cnc(C#N)c([N+](=O)[O-])c1)=C2O [Example 99, (4aR)-N-[2-(6-Cyano-5-nitropyridin-3-yl)-4-(trifluoromethyl)phenyl]-1-[(2,3-difluorophenyl)methyl]-4-hydroxy-4a-methyl-2-oxo-6,7-dihydro-5H-pyrrolo[1,2-b]pyridazine-3-carboxamide] | 82 |
| CN1N(Cc2ccc(OCCCOC[C@H](O)CO)c(F)c2F)C(=O)C(C(=O)Nc2ccc(C(F)(F)F)cc2-c2cc(C(F)(F)F)ncn2)=C(O)C12CCC2 [Example 389] | 29 |
| CN1N(Cc2cccc(F)c2F)C(=O)C(C(=O)Nc2cc(F)c(Br)c(F)c2)=C(O)C12CCC2 [Example 257] | 71 |
| COCCN(C)CCN(C)c1ccc(CN2C(=O)C(C(=O)Nc3ccc(C(F)(F)F)cc3-c3cc(C(F)(F)F)ncn3)=C(O)C3(CCCC3)N2C)c(F)c1F [Example 442] | 24 |
| C[C@]12CCCN1N(Cc1ccc(F)cc1F)C(=O)C(C(=O)Nc1ccc(C(F)(F)F)cc1-c1ccc(C(F)(F)F)nc1)=C2O [Example 173] | 73 |

| Compound | Rate of uptake inhibition (%) (1 µM) |
| --- | --- |
| CSc1ccc(-c2cc(C(F)(F)F)ccc2NC(=O)C2=C(O)[C@H](C(C)(C)C)N(C)N(Cc3ccc(OCCN4CCOCC4)c(F)c3F)C2=O)cn1 [Example 268] | 63 |
| Cc1cc(NC(=O)C2=C(O)[C@H]3CCCN3N(Cc3cccc(F)c3)C2=O)c(C(F)(F)F)o1 [Example 2, (4aR)-1-[(3-Fluorophenyl)methyl]-4-hydroxy-N-[5-methyl-2-(trifluoromethyl)furan-3-yl]-2-oxo-4a,5,6,7-tetrahydropyrrolo[1,2-b]pyridazine-3-carboxamide] | 19 |
| C[C@]12CCCN1N(Cc1ccc(C#CCCCCC(=O)O)c(F)c1F)C(=O)C(C(=O)Nc1ccc(C(F)(F)F)cc1-c1cncc(C(F)(F)F)c1)=C2O [Example 119, 7-[4-[[(4aR)4-Hydroxy-4a-methyl-2-oxo-3-[[4-(trifluoromethyl)-2-[5-(trifluoromethyl)pyridin-3-yl]phenyl]carbamoyl]-6,7-dihydro-5H-pyrrolo[1,2-b]pyridazin-1-yl]methyl)-2,3-difluorophenyl]hept-6-ynoate] | 71 |
| C[C@]12CCCN1N(Cc1cccc(F)c1F)C(=O)C(C(=O)Nc1ccc(C(F)(F)F)cc1-c1cc(Cl)cnc1Cl)=C2O [Example 84] | 91 |
| COCCOc1cc(NC(=O)C2=C(O)C3(CCCC3)N(C)N(Cc3ccc(OCCN(C)CCOC)c(F)c3F)C2=O)c(-c2ncnc(C(F)(F)F)c2C)cc1C(F)(F)F [Example 439, 7-[[2,3-Difluoro-4-[2-[2-methoxyethyl(methyl)amino]ethoxy]phenyl]methyl]-10-hydroxy-N-[5-(2-methoxyethoxy)-2-[5-methyl-6-(trifluoromethyl)pyrimidin-4-yl]-4-(trifluoromethyl)phenyl]-6-methyl-8-oxo-6,7-diazaspiro[4.5]dec-9-ene-9-carboxamide] | 35 |
| CC(C)(C)[C@H]1C(O)=C(C(=O)Nc2cc(F)c(Br)c(F)c2)C(=O)N(Cc2cccc(F)c2F)N1CC(F)(F)F [Example 248] | 45 |
| Cc1c(C#N)ncnc1-c1cc(C(F)(F)F)ccc1NC(=O)C1=C(O)C2(CCC2)N(C)N(Cc2ccc(OCCN3CCOCC3)c(F)c2F)C1=O [Example 283] | 45 |
| CN1CCN(CCOc2ccc(CN3C(=O)C(C(=O)Nc4ccc(C(F)(F)F)cc4-c4cc(C(F)(F)F)ncn4)=C(O)C4(CCC4)N3C)c(F)c2F)CC1=O [Example 359] | 37 |
| C[C@]12CCCN1N(Cc1cc(F)cc(F)c1)C(=O)C(C(=O)Nc1ccc(C(F)(F)F)cc1-c1ccc(C(F)(F)F)nc1)=C2O [Example 171] | 78 |
| CC(C)[C@H]1C(O)=C(C(=O)Nc2cc(F)c(Br)c(F)c2)C(=O)N(Cc2cccc(F)c2F)N1C [Example 254] | 58 |
| CN1N(Cc2ccc(OCCN3CCN(S(C)(=O)=O)CC3)c(F)c2F)C(=O)C(C(=O)Nc2ccc(C(F)(F)F)cc2-c2cc(C(F)(F)F)ncn2)=C(O)C12CCC2 [Example 363] | 11 |
| CN1N(Cc2ccc(OCCN3C4CCC3COC4)c(F)c2F)C(=O)C(C(=O)Nc2ccc(C(F)(F)F)cc2-c2cc(C(F)(F)F)ncn2)=C(O)C12CCCC2 [Example 367] | 43 |
| CN1N(Cc2ccc(OCCN3CCOCC3)c(F)c2F)C(=O)C(C(=O)Nc2ccc(C(F)(F)F)cc2-c2ccc(C(F)(F)F)nc2)=C(O)C12CCC2 [Example 282] | 55 |
| COc1ncc(-c2cc(C(F)(F)F)ccc2NC(=O)C2=C(O)[C@@]3(C)CCCN3N(Cc3cccc(F)c3F)C2=O)c(OC)n1 [Example 72] | 92 |
| CN(CCOc1ccc(CN2C(=O)C(C(=O)Nc3ccc(C(F)(F)F)cc3-c3cc(C(F)(F)F)ncn3)=C(O)C3(CCC3)N2C)c(F)c1F)C1COC1 [Example 402, 6-(2,3-Difluoro-4-(2-(methyl(oxetan-3-yl)amino)ethoxy)benzyl)-9-hydroxy-5-methyl-7-oxo-N-(4-(trifluorometyl)-2-(6-(trifluoromtthyl)pyrimidin-4-yl)phenyl)-5,6-diazaspiro[3.5]non-8-ene-8-carboxamide] | 54 |
| C[C@]12CCCN1N(Cc1ccccc1Cl)C(=O)C(C(=O)Nc1ccc(C(F)(F)F)cc1-c1ccc(C(F)(F)F)nc1)=C2O [Example 168] | 72 |
| CN1N(Cc2ccc(OCCN3CCOCC3)c(F)c2F)C(=O)C(C(=O)Nc2ccc(Cl)cc2-c2cc(C(F)(F)F)ncn2)=C(O)C12CCCC2 [Example 286] | 50 |
| C[C@]12CCCN1N(Cc1ccc(OC[C@H]3CCCO3)c(F)c1F)C(=O)C(C(=O)Nc1ccc(C(F)(F)F)cc1-c1ccc(C(F)(F)F)nc1)=C2O [Example 160] | 77 |
| COCCN(CCOC)CCOc1ccc(CN2C(=O)C(C(=O)Nc3ccc(C(F)(F)F)cc3-c3cc(C(F)(F)F)ncn3)=C(O)C3(CCC3)N2C)c(F)c1F [Example 348] | 31 |
